# Source: PMC7265341, “Quantifying CDK inhibitor selectivity in live cells” (Nature Communications, 2020)
# Like-named read-outs stand apart in the source and are kept apart here.
# Key:
# CDK1/Cyclin E1 = CDK1/Cyclin E1 (Homo sapiens, UniProt P06493); test: NanoBRET live-cell target engagement, CDK1-NanoLuc/Cyclin E1 in HEK-293; type: binding; conditions: CDK1/E1, 10µM
# CDK2/Cyclin E1 = CDK2/Cyclin E1 (Homo sapiens, UniProt P24941); test: NanoBRET live-cell target engagement, CDK2-NanoLuc/Cyclin E1 in HEK-293; type: binding; conditions: CDK2/E1, 10µM
# CDK3/Cyclin E1 = CDK3/Cyclin E1 (Homo sapiens, UniProt Q00526); test: NanoBRET live-cell target engagement, CDK3-NanoLuc/Cyclin E1 in HEK-293; type: binding; conditions: CDK3/E1, 10µM
# CDK4/Cyclin D1 = CDK4/Cyclin D1 (Homo sapiens, UniProt P11802); test: NanoBRET live-cell target engagement, NanoLuc-CDK4/Cyclin D1 in HEK-293; type: binding; conditions: CDK4/D1, 10µM
# CDK5/CDK5R1 = CDK5/CDK5R1 (Homo sapiens, UniProt Q00535); test: NanoBRET live-cell target engagement, CDK5-NanoLuc/CDK5R1 in HEK-293; type: binding; conditions: CDK5/CDK5R1, 10µM
# CDK7 = CDK7 (Homo sapiens, UniProt P50613); test: NanoBRET live-cell target engagement, NanoLuc-CDK7 in HEK-293; type: binding; conditions: CDK7, 10µM
# CDK8/Cyclin C = CDK8/Cyclin C (Homo sapiens, UniProt P49336); test: NanoBRET live-cell target engagement, NanoLuc-CDK8/Cyclin C in HEK-293; type: binding; conditions: CDK8/C, 10µM
# CDK9/Cyclin K = CDK9/Cyclin K (Homo sapiens, UniProt P50750); test: NanoBRET live-cell target engagement, NanoLuc-CDK9/Cyclin K in HEK-293; type: binding; conditions: for inhibition at 10 µM: CDK9/K
# CDK11A/Cyclin L2 = target: T1, CDK11A/Cyclin L2 (Homo sapiens, UniProt Q9UQ88); test: NanoBRET live-cell target engagement, CDK11A-NanoLuc/Cyclin L2 in HEK-293; type: binding; conditions: CDK11a/L2, 10µM
# T1 sequence (Q9UQ88 1-783): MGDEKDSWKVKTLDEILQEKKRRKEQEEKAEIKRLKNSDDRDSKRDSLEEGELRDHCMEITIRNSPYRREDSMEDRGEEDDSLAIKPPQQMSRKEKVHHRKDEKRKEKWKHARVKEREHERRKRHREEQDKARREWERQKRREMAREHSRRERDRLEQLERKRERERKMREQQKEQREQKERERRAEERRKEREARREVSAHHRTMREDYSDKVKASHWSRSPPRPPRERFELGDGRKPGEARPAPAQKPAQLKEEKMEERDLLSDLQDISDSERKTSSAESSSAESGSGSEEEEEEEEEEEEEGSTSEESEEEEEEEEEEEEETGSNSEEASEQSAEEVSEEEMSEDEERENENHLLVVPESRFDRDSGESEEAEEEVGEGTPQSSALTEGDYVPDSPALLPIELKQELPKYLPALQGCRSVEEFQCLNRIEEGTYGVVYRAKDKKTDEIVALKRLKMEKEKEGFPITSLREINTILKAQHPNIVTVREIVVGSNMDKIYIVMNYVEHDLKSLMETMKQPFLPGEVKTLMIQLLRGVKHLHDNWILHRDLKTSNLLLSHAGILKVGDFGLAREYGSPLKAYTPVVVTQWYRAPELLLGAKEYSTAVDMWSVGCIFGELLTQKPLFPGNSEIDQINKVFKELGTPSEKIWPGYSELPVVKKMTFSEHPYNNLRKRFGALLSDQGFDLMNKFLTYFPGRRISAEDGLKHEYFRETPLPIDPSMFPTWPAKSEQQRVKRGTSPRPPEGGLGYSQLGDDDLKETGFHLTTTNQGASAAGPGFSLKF
# CDK11B/Cyclin L2 = CDK11B/Cyclin L2 (Homo sapiens, UniProt P21127); test: NanoBRET live-cell target engagement, CDK11B-NanoLuc/Cyclin L2 in HEK-293; type: binding; conditions: CDK11b/L2, 10µM
# CDK12/Cyclin K = CDK12/Cyclin K (Homo sapiens, UniProt Q9NYV4); test: NanoBRET live-cell target engagement, CDK12-NanoLuc/Cyclin K in HEK-293; type: binding; conditions: CDK12/K, 10µM
# CDK13/Cyclin K = CDK13/Cyclin K (Homo sapiens, UniProt Q14004); test: NanoBRET live-cell target engagement, CDK13-NanoLuc/Cyclin K in HEK-293; type: binding; conditions: CDK13/K, 10µM
# CDK14/Cyclin Y = CDK14/Cyclin Y (Homo sapiens, UniProt O94921); test: NanoBRET live-cell target engagement, CDK14-NanoLuc/Cyclin Y in HEK-293; type: binding; conditions: CDK14/Y, 10µM
# CDK15/Cyclin Y = CDK15/Cyclin Y (Homo sapiens, UniProt Q96Q40); test: NanoBRET live-cell target engagement, NanoLuc-CDK15/Cyclin Y in HEK-293; type: binding; conditions: CDK15/Y, 10µM
# CDK16/Cyclin Y = CDK16/Cyclin Y (Homo sapiens, UniProt Q00536); test: NanoBRET live-cell target engagement, CDK16-NanoLuc/Cyclin Y in HEK-293; type: binding; conditions: CDK16/Y, 10µM
# CDK17/Cyclin Y = CDK17/Cyclin Y (Homo sapiens, UniProt Q00537); test: NanoBRET live-cell target engagement, CDK17-NanoLuc/Cyclin Y in HEK-293; type: binding; conditions: CDK17/Y, 10µM
# CDK20/Cyclin H = CDK20/Cyclin H (Homo sapiens, UniProt Q8IZL9); test: NanoBRET live-cell target engagement, NanoLuc-CDK20/Cyclin H in HEK-293; type: binding; conditions: CDK20/H, 10µM
# CDK19/Cyclin C = CDK19/Cyclin C (Homo sapiens, UniProt Q9BWU1); test: NanoBRET live-cell target engagement, NanoLuc-CDK19/Cyclin C in HEK-293; conditions: 10µM
# CDK10/Cyclin L2 = CDK10/Cyclin L2 (Homo sapiens, UniProt Q15131); test: NanoBRET live-cell target engagement, CDK10-NanoLuc/Cyclin L2 in HEK-293; conditions: 10µM
# [1] = average of replicates, read-out: Inhibition at 10µM (%) Average
# [2] = read-out: Inhibition at 10µM (%) Replicate 1
# [3] = read-out: Inhibition at 10µM (%) Replicate 2
# Sequence of CDK4/Cyclin D1 (P11802 whole entry): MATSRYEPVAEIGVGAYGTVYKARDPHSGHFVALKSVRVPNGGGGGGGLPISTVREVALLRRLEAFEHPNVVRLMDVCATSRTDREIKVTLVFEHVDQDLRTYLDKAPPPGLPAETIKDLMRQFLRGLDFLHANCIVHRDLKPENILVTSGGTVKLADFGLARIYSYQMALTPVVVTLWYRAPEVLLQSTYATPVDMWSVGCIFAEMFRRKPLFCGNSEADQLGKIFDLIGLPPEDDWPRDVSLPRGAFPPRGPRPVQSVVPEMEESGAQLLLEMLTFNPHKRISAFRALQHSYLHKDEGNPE
# Sequence of CDK4/Cyclin D1 (P24385 whole entry partner): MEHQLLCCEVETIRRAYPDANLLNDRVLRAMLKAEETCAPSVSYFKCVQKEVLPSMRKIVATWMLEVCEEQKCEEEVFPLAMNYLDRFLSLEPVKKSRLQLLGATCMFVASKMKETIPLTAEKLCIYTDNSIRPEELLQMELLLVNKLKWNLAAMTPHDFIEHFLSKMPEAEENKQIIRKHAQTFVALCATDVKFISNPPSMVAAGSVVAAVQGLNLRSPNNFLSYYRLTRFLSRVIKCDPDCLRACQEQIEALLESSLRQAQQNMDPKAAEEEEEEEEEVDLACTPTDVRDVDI
# Sequence of CDK13/Cyclin K (O75909 whole entry): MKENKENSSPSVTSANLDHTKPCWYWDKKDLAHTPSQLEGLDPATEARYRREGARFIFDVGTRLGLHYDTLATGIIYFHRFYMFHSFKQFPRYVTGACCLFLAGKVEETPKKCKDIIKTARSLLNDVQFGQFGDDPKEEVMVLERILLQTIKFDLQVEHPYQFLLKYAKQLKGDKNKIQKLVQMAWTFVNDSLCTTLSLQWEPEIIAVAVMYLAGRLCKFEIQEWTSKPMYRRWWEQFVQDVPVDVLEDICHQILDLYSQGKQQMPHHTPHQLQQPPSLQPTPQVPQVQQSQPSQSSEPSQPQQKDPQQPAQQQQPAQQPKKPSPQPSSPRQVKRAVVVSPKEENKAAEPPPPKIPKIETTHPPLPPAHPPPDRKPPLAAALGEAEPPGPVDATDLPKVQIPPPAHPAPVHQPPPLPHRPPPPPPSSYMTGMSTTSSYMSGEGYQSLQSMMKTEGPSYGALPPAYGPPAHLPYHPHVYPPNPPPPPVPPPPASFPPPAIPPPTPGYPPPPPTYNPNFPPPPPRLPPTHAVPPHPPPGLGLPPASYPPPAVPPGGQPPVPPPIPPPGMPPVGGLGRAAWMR
# Sequence of CDK13/Cyclin K (Q14004 other isoform, or with tags, fused parts or gaps): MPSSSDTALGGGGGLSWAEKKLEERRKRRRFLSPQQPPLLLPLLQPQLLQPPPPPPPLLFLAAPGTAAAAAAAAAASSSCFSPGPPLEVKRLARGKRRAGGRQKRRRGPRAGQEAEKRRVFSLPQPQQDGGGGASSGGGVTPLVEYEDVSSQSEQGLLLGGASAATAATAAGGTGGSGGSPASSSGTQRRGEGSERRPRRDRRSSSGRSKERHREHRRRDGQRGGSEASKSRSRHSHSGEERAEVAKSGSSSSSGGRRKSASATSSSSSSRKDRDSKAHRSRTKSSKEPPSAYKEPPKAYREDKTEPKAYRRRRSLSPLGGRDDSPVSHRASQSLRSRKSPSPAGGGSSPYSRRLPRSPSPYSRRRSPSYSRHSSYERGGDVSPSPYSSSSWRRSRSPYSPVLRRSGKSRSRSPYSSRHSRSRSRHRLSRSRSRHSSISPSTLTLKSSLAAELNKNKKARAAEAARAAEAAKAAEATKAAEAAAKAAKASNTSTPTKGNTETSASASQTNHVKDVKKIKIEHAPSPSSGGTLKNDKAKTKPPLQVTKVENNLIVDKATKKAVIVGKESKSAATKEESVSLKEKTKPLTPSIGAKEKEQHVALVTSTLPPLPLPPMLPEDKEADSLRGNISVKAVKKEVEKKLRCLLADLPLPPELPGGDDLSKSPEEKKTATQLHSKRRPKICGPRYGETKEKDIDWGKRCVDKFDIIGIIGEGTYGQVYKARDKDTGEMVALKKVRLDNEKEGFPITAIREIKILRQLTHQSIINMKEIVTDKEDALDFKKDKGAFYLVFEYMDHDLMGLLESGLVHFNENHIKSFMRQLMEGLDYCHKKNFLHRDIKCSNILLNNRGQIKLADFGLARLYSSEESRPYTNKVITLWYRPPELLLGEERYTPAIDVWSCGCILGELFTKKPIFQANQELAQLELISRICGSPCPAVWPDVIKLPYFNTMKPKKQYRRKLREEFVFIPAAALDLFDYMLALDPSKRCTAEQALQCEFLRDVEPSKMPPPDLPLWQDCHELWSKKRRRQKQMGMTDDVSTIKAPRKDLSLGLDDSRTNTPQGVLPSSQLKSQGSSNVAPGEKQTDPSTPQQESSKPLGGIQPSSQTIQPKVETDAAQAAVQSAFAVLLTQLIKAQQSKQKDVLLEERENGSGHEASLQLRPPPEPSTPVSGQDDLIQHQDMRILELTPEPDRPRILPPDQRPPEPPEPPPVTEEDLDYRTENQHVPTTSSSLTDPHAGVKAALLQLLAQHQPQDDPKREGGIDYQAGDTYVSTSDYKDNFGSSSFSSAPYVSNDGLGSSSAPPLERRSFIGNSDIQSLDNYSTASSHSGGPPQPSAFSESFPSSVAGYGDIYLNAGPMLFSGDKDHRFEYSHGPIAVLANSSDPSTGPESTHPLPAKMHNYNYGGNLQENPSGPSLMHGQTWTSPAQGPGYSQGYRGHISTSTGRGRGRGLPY
# Sequence of CDK11B/Cyclin L2 (P21127 1-782 isoform P21127-2): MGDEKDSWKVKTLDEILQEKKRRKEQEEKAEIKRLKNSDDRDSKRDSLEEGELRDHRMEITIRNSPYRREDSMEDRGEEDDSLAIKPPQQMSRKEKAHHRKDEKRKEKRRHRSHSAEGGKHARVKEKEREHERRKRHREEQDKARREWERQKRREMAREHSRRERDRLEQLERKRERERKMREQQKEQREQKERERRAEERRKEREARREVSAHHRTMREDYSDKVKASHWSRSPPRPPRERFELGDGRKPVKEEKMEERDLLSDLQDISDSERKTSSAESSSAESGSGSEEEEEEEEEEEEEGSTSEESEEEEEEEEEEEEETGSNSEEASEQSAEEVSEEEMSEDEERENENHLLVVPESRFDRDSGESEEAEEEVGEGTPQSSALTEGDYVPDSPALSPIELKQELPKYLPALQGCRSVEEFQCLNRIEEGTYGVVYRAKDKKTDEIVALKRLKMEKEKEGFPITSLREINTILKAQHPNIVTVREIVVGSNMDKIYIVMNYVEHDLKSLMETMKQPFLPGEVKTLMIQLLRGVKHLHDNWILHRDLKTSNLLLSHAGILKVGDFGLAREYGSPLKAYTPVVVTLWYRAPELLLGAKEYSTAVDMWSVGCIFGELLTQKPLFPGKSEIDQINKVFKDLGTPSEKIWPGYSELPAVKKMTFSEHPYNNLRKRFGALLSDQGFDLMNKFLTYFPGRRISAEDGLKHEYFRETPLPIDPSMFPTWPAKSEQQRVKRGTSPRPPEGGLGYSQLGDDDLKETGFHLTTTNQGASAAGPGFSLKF
# Sequence of CDK15/Cyclin Y (Q96Q40 whole entry): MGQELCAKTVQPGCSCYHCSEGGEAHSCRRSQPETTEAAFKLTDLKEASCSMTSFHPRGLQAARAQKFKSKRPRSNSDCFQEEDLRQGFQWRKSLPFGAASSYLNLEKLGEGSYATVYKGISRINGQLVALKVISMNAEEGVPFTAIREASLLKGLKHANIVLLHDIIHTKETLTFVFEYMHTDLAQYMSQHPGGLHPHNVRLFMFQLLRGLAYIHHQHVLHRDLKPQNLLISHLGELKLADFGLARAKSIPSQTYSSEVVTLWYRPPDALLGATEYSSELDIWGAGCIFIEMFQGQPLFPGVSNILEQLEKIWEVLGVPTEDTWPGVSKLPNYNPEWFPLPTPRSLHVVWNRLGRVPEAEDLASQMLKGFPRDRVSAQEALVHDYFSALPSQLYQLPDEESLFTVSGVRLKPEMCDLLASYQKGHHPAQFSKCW
# Sequence of CDK15/Cyclin Y (Q8ND76 whole entry partner): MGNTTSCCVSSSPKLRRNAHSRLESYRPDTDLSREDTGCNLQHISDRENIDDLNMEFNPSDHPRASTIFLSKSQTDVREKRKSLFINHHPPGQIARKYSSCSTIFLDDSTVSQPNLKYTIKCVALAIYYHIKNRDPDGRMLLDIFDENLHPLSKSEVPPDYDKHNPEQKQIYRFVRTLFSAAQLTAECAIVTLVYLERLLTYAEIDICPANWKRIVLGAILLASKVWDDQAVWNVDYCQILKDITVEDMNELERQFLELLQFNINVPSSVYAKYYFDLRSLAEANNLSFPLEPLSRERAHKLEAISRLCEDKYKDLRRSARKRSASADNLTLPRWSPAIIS
# Sequence of CDK10/Cyclin L2 (Q15131 whole entry): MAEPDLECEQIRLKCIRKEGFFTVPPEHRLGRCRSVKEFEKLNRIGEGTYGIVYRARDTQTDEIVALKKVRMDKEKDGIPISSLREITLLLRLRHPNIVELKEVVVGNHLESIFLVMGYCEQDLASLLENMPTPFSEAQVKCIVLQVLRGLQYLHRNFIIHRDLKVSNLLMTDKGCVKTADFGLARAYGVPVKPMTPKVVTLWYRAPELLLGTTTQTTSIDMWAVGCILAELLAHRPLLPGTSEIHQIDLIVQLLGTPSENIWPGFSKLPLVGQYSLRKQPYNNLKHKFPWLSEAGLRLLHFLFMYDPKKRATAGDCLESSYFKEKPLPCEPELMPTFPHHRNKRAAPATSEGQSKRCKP
# Sequence of CDK9/Cyclin K (P50750 whole entry): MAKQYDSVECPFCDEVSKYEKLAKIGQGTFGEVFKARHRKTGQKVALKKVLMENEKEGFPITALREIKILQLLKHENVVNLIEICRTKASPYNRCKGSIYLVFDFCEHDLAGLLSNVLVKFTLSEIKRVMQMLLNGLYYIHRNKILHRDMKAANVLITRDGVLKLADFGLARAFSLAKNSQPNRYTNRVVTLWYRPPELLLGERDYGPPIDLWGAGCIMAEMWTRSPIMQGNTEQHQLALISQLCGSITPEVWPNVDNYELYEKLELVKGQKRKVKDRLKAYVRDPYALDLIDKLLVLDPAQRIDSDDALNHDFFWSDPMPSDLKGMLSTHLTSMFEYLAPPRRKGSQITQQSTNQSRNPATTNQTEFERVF
# Sequence of CDK9/Cyclin K (O75909 whole entry partner): as the sequence (O75909 whole entry) above
compound,measurement,setting,value
COc1cc(F)ccc1-c1cc(Nc2cc(CS(C)(=N)=O)ccn2)ncc1F (stereo not drawn) [BAY-1251152],inhibition at 10 µM,CDK1/Cyclin E1; [1],56%
same,inhibition at 10 µM,CDK1/Cyclin E1; [2],55.2%
same,inhibition at 10 µM,CDK1/Cyclin E1; [3],56.8%
same,inhibition at 10 µM,CDK2/Cyclin E1; [1],72.3%
same,inhibition at 10 µM,CDK2/Cyclin E1; [2],71%
same,inhibition at 10 µM,CDK2/Cyclin E1; [3],73.6%
same,inhibition at 10 µM,CDK3/Cyclin E1; [1],77.9%
same,inhibition at 10 µM,CDK3/Cyclin E1; [2],75.8%
same,inhibition at 10 µM,CDK3/Cyclin E1; [3],80%
same,inhibition at 10 µM,CDK4/Cyclin D1; [1],79.7%
same,inhibition at 10 µM,CDK4/Cyclin D1; [2],75.9%
same,inhibition at 10 µM,CDK4/Cyclin D1; [3],83.4%
same,inhibition at 10 µM,CDK5/CDK5R1; [1],56.6%
same,inhibition at 10 µM,CDK5/CDK5R1; [2],44.9%
same,inhibition at 10 µM,CDK5/CDK5R1; [3],68.3%
same,inhibition at 10 µM,CDK7; [1],58.7%
same,inhibition at 10 µM,CDK7; [2],59.8%
same,inhibition at 10 µM,CDK7; [3],57.6%
same,inhibition at 10 µM,CDK8/Cyclin C; [1],9.9%
same,inhibition at 10 µM,CDK8/Cyclin C; [2],13.9%
same,inhibition at 10 µM,CDK8/Cyclin C; [3],5.9%
same,inhibition at 10 µM,CDK9/Cyclin K; [1],99.8%
same,inhibition at 10 µM,CDK9/Cyclin K; [2],99.5%
same,inhibition at 10 µM,CDK9/Cyclin K; [3],100%
same,"CDK9 Occupancy Data, Plasmid",CDK9/Cyclin K; LOG10([BAY-1251152]) (LOG10(µM)) 0.045757,99.1453
same,"CDK9 Occupancy Data, Plasmid",CDK9/Cyclin K; LOG10([BAY-1251152]) (LOG10(µM)) 0.522879,96.1111
same,"CDK9 Occupancy Data, Plasmid",CDK9/Cyclin K; LOG10([BAY-1251152]) (LOG10(µM)) 1,96.4103
same,"CDK9 Occupancy Data, Plasmid",CDK9/Cyclin K; LOG10([BAY-1251152]) (LOG10(µM)) -0.43136,97.094
same,"CDK9 Occupancy Data, Plasmid",CDK9/Cyclin K; LOG10([BAY-1251152]) (LOG10(µM)) -0.90849,95.641
same,"CDK9 Occupancy Data, Plasmid",CDK9/Cyclin K; LOG10([BAY-1251152]) (LOG10(µM)) -1.38561,91.9658
same,"CDK9 Occupancy Data, Plasmid",CDK9/Cyclin K; LOG10([BAY-1251152]) (LOG10(µM)) -1.86273,87.906
same,"CDK9 Occupancy Data, Plasmid",CDK9/Cyclin K; LOG10([BAY-1251152]) (LOG10(µM)) -2.33985,67.9487
same,"CDK9 Occupancy Data, Plasmid",CDK9/Cyclin K; LOG10([BAY-1251152]) (LOG10(µM)) -2.81697,29.4872
same,"CDK9 Occupancy Data, Plasmid",CDK9/Cyclin K; LOG10([BAY-1251152]) (LOG10(µM)) -3.29409,6.838
same,"CDK9 Occupancy Data, Plasmid",CDK9/Cyclin K; LOG10([BAY-1251152]) (LOG10(µM)) -3.77121,1.421e-14
same,inhibition at 10 µM,CDK11A/Cyclin L2; [1],44%
same,inhibition at 10 µM,CDK11A/Cyclin L2; [2],39.5%
same,inhibition at 10 µM,CDK11A/Cyclin L2; [3],48.5%
same,inhibition at 10 µM,CDK11B/Cyclin L2; [1],33.9%
same,inhibition at 10 µM,CDK11B/Cyclin L2; [2],35.6%
same,inhibition at 10 µM,CDK11B/Cyclin L2; [3],32.1%
same,inhibition at 10 µM,CDK12/Cyclin K; [1],25.3%
same,inhibition at 10 µM,CDK12/Cyclin K; [2],33%
same,inhibition at 10 µM,CDK12/Cyclin K; [3],17.7%
same,inhibition at 10 µM,CDK13/Cyclin K; [1],23.2%
same,inhibition at 10 µM,CDK13/Cyclin K; [2],23.5%
same,inhibition at 10 µM,CDK13/Cyclin K; [3],22.8%
same,inhibition at 10 µM,CDK14/Cyclin Y; [1],19.5%
same,inhibition at 10 µM,CDK14/Cyclin Y; [2],16.7%
same,inhibition at 10 µM,CDK14/Cyclin Y; [3],22.4%
same,inhibition at 10 µM,CDK15/Cyclin Y; [1],40%
same,inhibition at 10 µM,CDK15/Cyclin Y; [2],31.9%
same,inhibition at 10 µM,CDK15/Cyclin Y; [3],48.2%
same,inhibition at 10 µM,CDK16/Cyclin Y; [2],62.8%
same,inhibition at 10 µM,CDK16/Cyclin Y; [3],66.7%
same,inhibition at 10 µM,CDK17/Cyclin Y; [1],59.9%
same,inhibition at 10 µM,CDK17/Cyclin Y; [2],56.6%
same,inhibition at 10 µM,CDK17/Cyclin Y; [3],63.1%
same,inhibition at 10 µM,CDK20/Cyclin H; [2],8.6%
same,inhibition at 10 µM,CDK20/Cyclin H; [3],8.9%
same,inhibition at 10 µM,"CDK19/Cyclin C; read-out: Inhibition at 10µM (%) Average, CDK19/C, average of replicates",21.3%
same,inhibition at 10 µM,"CDK19/Cyclin C; read-out: Inhibition at 10µM (%) Replicate 1, CDK19/C",28.8%
same,inhibition at 10 µM,"CDK19/Cyclin C; read-out: Inhibition at 10µM (%) Replicate 2, CDK19/C",13.7%
same,inhibition at 10 µM,"CDK10/Cyclin L2; read-out: Inhibition at 10µM (%) Average, CDK10/L2, average of replicates",45%
same,inhibition at 10 µM,"CDK10/Cyclin L2; read-out: Inhibition at 10µM (%) Replicate 1, CDK10/L2",38.6%
same,inhibition at 10 µM,"CDK10/Cyclin L2; read-out: Inhibition at 10µM (%) Replicate 2, CDK10/L2",51.4%
